Patent US6696484B2, “Method and compositions for regulation of 5-alpha reductase activity” (University of Chicago Office of Technology and Intellectual …, priority 1997, dated 2004)
One block for each compound: values may come before it.

Experiments:
[1] = molecular target: T1, type 2 human 5α-reductase (Homo sapiens, UniProt P31213); test: Cell-free enzymatic assay of 5α-reductase (testosterone to DHT), type 2; assay type: biochemical; set-up: expressed in transfected cells; host or cells: rat 1A cells infected with pMV7 retrovirus and selected with G418; microsomes for the cell-free assay; conditions: for inhibition at 100 µM: read-out: percent inhibition of 5α-reductase activity, cell-free assay, Type 2, 100 μM compound; for IC50: microsomes from rat 1A cells expressing human type 2 5α-reductase, read-out: Cell-free assay IC50, 5α-reductase Type 2
T1 sequence (P31213 1-254): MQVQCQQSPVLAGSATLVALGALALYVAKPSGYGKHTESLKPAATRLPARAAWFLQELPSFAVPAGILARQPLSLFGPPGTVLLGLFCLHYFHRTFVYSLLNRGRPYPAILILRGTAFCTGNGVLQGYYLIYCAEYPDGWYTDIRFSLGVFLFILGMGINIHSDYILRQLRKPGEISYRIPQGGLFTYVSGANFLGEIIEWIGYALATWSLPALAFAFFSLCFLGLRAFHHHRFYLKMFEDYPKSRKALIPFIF

[2] = molecular target: T2, type 1 human 5α-reductase (Homo sapiens, UniProt P18405); test: Cell-free enzymatic assay of 5α-reductase (testosterone to DHT), type 1; conditions: for inhibition at 100 µM: read-out: percent inhibition of 5α-reductase activity, cell-free assay, Type 1, 100 μM compound
T2 sequence (P18405 1-259): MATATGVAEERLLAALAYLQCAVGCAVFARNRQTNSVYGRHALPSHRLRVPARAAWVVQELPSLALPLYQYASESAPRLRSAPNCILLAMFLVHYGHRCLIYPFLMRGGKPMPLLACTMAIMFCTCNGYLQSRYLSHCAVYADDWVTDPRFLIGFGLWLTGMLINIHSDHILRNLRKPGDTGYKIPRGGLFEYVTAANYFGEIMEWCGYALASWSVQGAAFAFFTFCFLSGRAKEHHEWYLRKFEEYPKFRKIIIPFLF

5α-reductase = test: Cell-free 5α-reductase assay, isozyme not given; assay type: biochemical, human; conditions: isozyme not stated
hamster flank organ = test: Testosterone-stimulated growth of the pigmented macules of hamster flank organs; assay type: in vivo, Syrian golden hamsters; conditions: 0.5 μg testosterone + 1 mg compound topically daily, 18 days; for Pigmented macule area: castrated male hamsters, mean±SEM;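 as to all read-outs here: prepubertal Syrian golden hamsters castrated at 4 weeks, ethanol vehicle on one flank organ, macule long and short axes gauged by caliper 1 day after final dose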
[3] = molecular target: T1, type 2 human 5α-reductase; test: Whole-cell assay of 5α-reductase, type 2; assay type: cell-based; set-up: expressed in transfected cells; host or cells: rat 1A cells infected with pMV7 retrovirus and selected with G418; intact cells for the whole-cell assay
[4] = molecular target: T2, type 1 human 5α-reductase; test: Whole-cell assay of 5α-reductase, type 1; assay type: cell-based; set-up: expressed in transfected cells; host or cells: rat 1A cells infected with pMV7 retrovirus and selected with G418; microsomes for the cell-free assay, intact cells for the whole-cell assay; conditions: for IC50: rat 1A cells expressing human type 1 5α-reductase

Compound: O=c1c(O)cccc2cc(O)c(O)c(O)c12 [Purpurogallin]
- inhibition at 100 µM [1]: 31%
- inhibition at 100 µM [2]: 81%

- IC50 [1]: 100 µM
Compound: O=C1C=CC(=C(c2ccc(O)c(O)c2)c2ccccc2S(=O)(=O)O)C=C1O (mixture of isomers) [Pyrocatechol violet, pyrocatecholsulfonephthalein]

- IC50 (5α-reductase): > 100 µM
Compound: O=c1oc2c(O)c(O)cc3c(=O)oc4c(O)c(O)cc1c4c23 [Ellagic acid]

- percent inhibition of 5α-reductase activity, cell-free assay, Type 2 ([1]; 100 μM compound): 81%
- IC50 [1]: 30 µM
- percent inhibition of 5α-reductase activity, cell-free assay, Type 1 ([2]; 100 μM compound): 99%
- IC50 ([2]; read-out: Cell-free assay IC50, 5α-reductase Type 1, microsomes from rat 1A cells expressing human type 1 5α-reductase): 10 µM
Compound: cis or traps-9,11 or 10,12 octadecadienoic acid [Conjugated Octadecadienonic Acid]

Compound: O=c1ccc2cc(O)c(O)cc2o1 [Esculetin, 6,7-dihydroxycoumarin]
- inhibition at 100 µM [1]: 13%
- IC50 (5α-reductase): > 100 µM
- inhibition at 100 µM [2]: 7%

Compound: CCCC/C=C\CCCCCCCC(=O)O [myristoleic acid]
- Inhibition (percent decrease in macule area vs androgen-treated macules) (hamster flank organ): 73%
- Pigmented macule area (hamster flank organ): 4.63 ± 0.66 mm^2

Compound: CCCCC/C=C\C/C=C\C/C=C\CCCCC(=O)O[C@@H]1Cc2c(O)cc(O)cc2O[C@@H]1c1cc(O)c(O)c(O)c1 [EGC-γ-linoleneate acid, EGC-γ-linoleneate]
- IC50 ([3]; rat 1A cells expressing human type 2 5α-reductase): < 15 µM
- IC50 [4]: < 15 µM
- Inhibition (percent decrease in macule area vs androgen-treated macules) (hamster flank organ): 68%
- Pigmented macule area (hamster flank organ): 5.50 ± 0.56 mm^2
- Inhibition (percent decrease in macule area vs androgen-treated macules) (hamster flank organ; listed as EGC-3 ester of γ-LA): about 70%

Compound: O=c1ccc2c(-c3ccccc3S(=O)(=O)O)c3ccc(O)c(O)c3oc-2c1O [Pyrogallol red, pryrogallolsulfonephthalein]
- inhibition at 100 µM [1]: 27%
- inhibition at 100 µM [2]: 97%

Compound: CC(Cc1ccc(O)c(O)c1)C(C)Cc1ccc(O)c(O)c1 (stereo not drawn) [Nordihydroguaiaretic acid]
- inhibition at 100 µM [1]: 80%
- IC50 [2]: 19 µM
- IC50 [4]: 19 µM

Compound: C=CCc1ccc(O)c(OC)c1 [Eugenol]
- IC50 [1]: 100 µM

Compound: CCCCC/C=C\C/C=C\CCCCCCCC(=O)O [Linoleic Acid, Linoleic Acid C18:2 CIS 9,12]
- inhibition at 100 µM [1]: 85%
- inhibition at 100 µM ([3]; read-out: percent inhibition of 5α-reductase activity, whole-cell assay, Type 2, 100 μM compound): 77%
- inhibition at 100 µM [2]: 99%
- inhibition at 100 µM ([4]; read-out: percent inhibition of 5α-reductase activity, whole-cell assay, Type 1, 100 μM compound): 78%

Compound: O=C1c2ccccc2C(=O)c2c(O)c(O)cc(O)c21 [Purpurin]
- inhibition at 100 µM [1]: 20%
- inhibition at 100 µM [2]: 95%

Compound: COc1cc2ccc(=O)oc2c(O)c1O [Fraxetin, 7,8-dihydroxy-6-methoxycoumarin]
- inhibition at 100 µM [1]: 8%
- IC50 (5α-reductase): > 100 µM
- inhibition at 100 µM [2]: 2%
